Experimental data from patent publication US10925856B2, “Methods and compositions involving bucindolol for the treatment of atrial fibrillation” (priority 2018, dated 2021).

Legend:
[1] = in vivo; cited from earlier work
NT-proBNP = test: Plasma NT-proBNP (electrochemiluminescence immunoassay)
[2] = Europe excluding Hungary (n = 48)
[3] = change from baseline, Canada (n = 59)
[4] = change from baseline, Entire Cohort (n = 267)
[5] = change from baseline, Europe excluding Hungary (n = 48)
[6] = change from baseline, Hungary (n = 33)
[7] = change from baseline, U.S. (n = 127)

In the case of CC(C)(Cc1c[nH]c2ccccc12)NCC(O)COc1ccccc1C#N (stereo not drawn) [bucindolol, 2-(3-(1-(1H-indol-3-yl)-2-methylpropan-2-ylamino)-2-hydroxypropoxy)benzonitrile], the Bioavailability [1] is listed as “approximately 30%”, the “NT-proBNP, Week 4 Mean” value (NT-proBNP; Canada) is listed as 859 pg/mL and the “NT-proBNP, Week 4 Median” value (NT-proBNP; Canada) is listed as 499 pg/mL. The “NT-proBNP, ΔWeek 4 Mean ± SEM” value (NT-proBNP; Canada) was -455 pg/mL, the “NT-proBNP, ΔWeek 4 Median” value (NT-proBNP; Canada) was -184 pg/mL and the “NT-proBNP, Baseline Mean ± SD” value (NT-proBNP; Canada (n = 59)) was 1314 ± 1503 pg/mL. For the same compound, the “NT-proBNP, Baseline Median” value (NT-proBNP; Canada (n = 59)) was 790 pg/mL, the “NT-proBNP, Week 12 Mean ± SD” value (NT-proBNP; Canada (n = 59)) was 674 ± 767 pg/mL and the “NT-proBNP, Week 12 Median” value (NT-proBNP; Canada (n = 59)) was 432 pg/mL. For the same compound, the “NT-proBNP, Week 24 Mean ± SD” value (NT-proBNP; Canada (n = 59)) was 831 ± 961 pg/mL, the “NT-proBNP, Week 24 Median” value (NT-proBNP; Canada (n = 59)) was 425 pg/mL and the “NT-proBNP, Week 4 Mean” value (NT-proBNP; Entire Cohort) was 1196 pg/mL. The “NT-proBNP, Week 4 Median” value (NT-proBNP; Entire Cohort) was 613 pg/mL, the “NT-proBNP, ΔWeek 4 Mean ± SEM” value (NT-proBNP; Entire Cohort) was -0.4 pg/mL and the “NT-proBNP, ΔWeek 4 Median” value (NT-proBNP; Entire Cohort) was -96 pg/mL. For the same compound, the “NT-proBNP, Baseline Mean ± SD” value (NT-proBNP; Entire Cohort (n = 267)) was 1159 ± 1306 pg/mL, the “NT-proBNP, Baseline Median” value (NT-proBNP; Entire Cohort (n = 267)) was 777 pg/mL and the “NT-proBNP, Week 12 Mean ± SD” value (NT-proBNP; Entire Cohort (n = 267)) was 1052 ± 1923 pg/mL. The “NT-proBNP, Week 12 Median” value (NT-proBNP; Entire Cohort (n = 267)) was 470 pg/mL, the “NT-proBNP, Week 24 Mean ± SD” value (NT-proBNP; Entire Cohort (n = 267)) was 1135 ± 1632 pg/mL and the “NT-proBNP, Week 24 Median” value (NT-proBNP; Entire Cohort (n = 267)) was 502 pg/mL. For the same compound, the “NT-proBNP, Week 4 Mean” value (NT-proBNP; Europe excluding Hungary) was 756 pg/mL, the “NT-proBNP, Week 4 Median” value (NT-proBNP; Europe excluding Hungary) was 431 pg/mL and the “NT-proBNP, ΔWeek 4 Mean ± SEM” value (NT-proBNP; Europe excluding Hungary) was -72 pg/mL. The “NT-proBNP, ΔWeek 4 Median” value (NT-proBNP; Europe excluding Hungary) was -108 pg/mL, the “NT-proBNP, Baseline Mean ± SD” value (NT-proBNP; [2]) was 893 ± 849 pg/mL and the “NT-proBNP, Baseline Median” value (NT-proBNP; [2]) was 600 pg/mL. The “NT-proBNP, Week 12 Mean ± SD” value (NT-proBNP; [2]) was 782 pg/mL, the “NT-proBNP, Week 12 Median” value (NT-proBNP; [2]) was 376 pg/mL and the “NT-proBNP, Week 24 Mean ± SD” value (NT-proBNP; [2]) was 1859 pg/mL. For the same compound, the “NT-proBNP, Week 24 Median” value (NT-proBNP; [2]) was 593 pg/mL, the “NT-proBNP, Week 4 Mean” value (NT-proBNP; Hungary) was 1616 pg/mL and the “NT-proBNP, Week 4 Median” value (NT-proBNP; Hungary) was 594 pg/mL. The “NT-proBNP, ΔWeek 4 Mean ± SEM” value (NT-proBNP; Hungary) was “+461 pg/ml”, the “NT-proBNP, ΔWeek 4 Median” value (NT-proBNP; Hungary) was -47 pg/mL and the “NT-proBNP, Baseline Mean ± SD” value (NT-proBNP; Hungary (n = 33)) was 989 ± 1428 pg/mL. The “NT-proBNP, Baseline Median” value (NT-proBNP; Hungary (n = 33)) was 567 pg/mL, the “NT-proBNP, Week 12 Mean ± SD” value (NT-proBNP; Hungary (n = 33)) was 1095 ± 1929 pg/mL and the “NT-proBNP, Week 12 Median” value (NT-proBNP; Hungary (n = 33)) was 446 pg/mL. For the same compound, the “NT-proBNP, Week 24 Mean ± SD” value (NT-proBNP; Hungary (n = 33)) was 1244 ± 2515 pg/mL, the “NT-proBNP, Week 24 Median” value (NT-proBNP; Hungary (n = 33)) was 244 pg/mL and the “NT-proBNP, Week 4 Mean” value (NT-proBNP; U.S.) was 1501 pg/mL. For the same compound, the “NT-proBNP, Week 4 Median” value (NT-proBNP; U.S.) was 796 pg/mL, the “NT-proBNP, ΔWeek 4 Mean ± SEM” value (NT-proBNP; U.S.) was “+182 pg/ml” and the “NT-proBNP, ΔWeek 4 Median” value (NT-proBNP; U.S.) was -75 pg/mL. The “NT-proBNP, Baseline Mean ± SD” value (NT-proBNP; U.S. (n = 127)) was 1245 ± 1332 pg/mL, the “NT-proBNP, Baseline Median” value (NT-proBNP; U.S. (n = 127)) was 904 pg/mL and the “NT-proBNP, Week 12 Mean ± SD” value (NT-proBNP; U.S. (n = 127)) was 1383 ± 2538 pg/mL. For the same compound, the “NT-proBNP, Week 12 Median” value (NT-proBNP; U.S. (n = 127)) was 561 pg/mL, the “NT-proBNP, Week 24 Mean ± SD” value (NT-proBNP; U.S. (n = 127)) was 1124 ± 1516 pg/mL and the “NT-proBNP, Week 24 Median” value (NT-proBNP; U.S. (n = 127)) was 653 pg/mL. For the same compound, the NT-proBNP decrease (NT-proBNP; Week 24, Canadian cohort) was −39%, the “NT-proBNP decrease relative to that in the metoprolol group” value (NT-proBNP; Week 24, Canadian cohort) was roughly 3 fold and the “NT-proBNP, ΔWeek 12 Mean ± SEM” value (NT-proBNP; [3]) was -602 ± 232 pg/mL. The “NT-proBNP, ΔWeek 12 Median” value (NT-proBNP; [3]) was -176 pg/mL, the “NT-proBNP, ΔWeek 24 Mean ± SEM” value (NT-proBNP; [3]) was -442 ± 223 pg/mL and the “NT-proBNP, ΔWeek 24 Median” value (NT-proBNP; [3]) was -271 pg/mL. For the same compound, the “NT-proBNP, ΔWeek 12 Mean ± SEM” value (NT-proBNP; [4]) was -108 ± 133 pg/mL, the “NT-proBNP, ΔWeek 12 Median” value (NT-proBNP; [4]) was -96 pg/mL and the “NT-proBNP, ΔWeek 24 Mean ± SEM” value (NT-proBNP; [4]) was -92 ± 136 pg/mL. For the same compound, the “NT-proBNP, ΔWeek 24 Median” value (NT-proBNP; [4]) was -197 pg/mL, the “NT-proBNP, ΔWeek 12 Mean ± SEM” value (NT-proBNP; [5]) was -101 pg/mL and the “NT-proBNP, ΔWeek 12 Median” value (NT-proBNP; [5]) was -92 pg/mL. For the same compound, the “NT-proBNP, ΔWeek 24 Mean ± SEM” value (NT-proBNP; [5]) was “+983 pg/ml”, the “NT-proBNP, ΔWeek 24 Median” value (NT-proBNP; [5]) was -48 pg/mL and the “NT-proBNP, ΔWeek 12 Mean ± SEM” value (NT-proBNP; [6]) was “+40 ± 170 pg/ml”. For the same compound, the “NT-proBNP, ΔWeek 12 Median” value (NT-proBNP; [6]) was -96 pg/mL, the “NT-proBNP, ΔWeek 24 Mean ± SEM” value (NT-proBNP; [6]) was “+41 ± 276 pg/ml” and the “NT-proBNP, ΔWeek 24 Median” value (NT-proBNP; [6]) was -176 pg/mL. The “NT-proBNP, ΔWeek 12 Mean ± SEM” value (NT-proBNP; [7]) was “+130 ± 262 pg/ml”, the “NT-proBNP, ΔWeek 12 Median” value (NT-proBNP; [7]) was -81 pg/mL and the “NT-proBNP, ΔWeek 24 Mean ± SEM” value (NT-proBNP; [7]) was -163 ± 161 pg/mL. The “NT-proBNP, ΔWeek 24 Median” value (NT-proBNP; [7]) was -315 pg/mL, the “NT-proBNP, ΔWeek 4 Median” value (NT-proBNP; change from baseline, entire cohort) was -96 pg/mL and the NT-proBNP decrease (NT-proBNP; end of the 24-week follow-up period, U.S.) was 33%. For the same compound, the “NT-proBNP decrease from baseline” value (NT-proBNP; week 4, entire cohort) was 96 pg/mL, the “NT-proBNP decrease from baseline” value (NT-proBNP; week 12, entire cohort) was 96 pg/mL and the “NT-proBNP decrease relative to baseline” value (NT-proBNP; week 24, entire cohort) was 197 pg/mL.
